This is an account of results in publication PMC4406830 (Biochemistry, 2015).

For test [1], the target named is T1, MtmC (Streptomyces argillaceus, UniProt Q194Q4).
T1 sequence (Q194Q4 1-420): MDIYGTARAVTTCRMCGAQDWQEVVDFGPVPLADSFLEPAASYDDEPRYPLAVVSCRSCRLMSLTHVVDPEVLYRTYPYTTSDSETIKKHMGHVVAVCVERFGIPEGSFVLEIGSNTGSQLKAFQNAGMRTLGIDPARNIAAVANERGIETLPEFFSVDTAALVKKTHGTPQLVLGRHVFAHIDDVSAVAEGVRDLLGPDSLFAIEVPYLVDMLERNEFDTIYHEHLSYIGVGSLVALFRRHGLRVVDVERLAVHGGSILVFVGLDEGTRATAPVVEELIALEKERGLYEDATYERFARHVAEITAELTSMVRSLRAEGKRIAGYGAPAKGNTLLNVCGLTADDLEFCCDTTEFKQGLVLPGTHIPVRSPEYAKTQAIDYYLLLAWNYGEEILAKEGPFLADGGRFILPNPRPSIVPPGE
The test is described as follows: crystal structure, […] Å. The format is binding. Conditions: binary complex; central-domain site; crystals pH 5.5.

For test [2], the target named is T1, MtmC. The test can be described thus: crystal structure, […] Å. The format is binding. Conditions: binary complex; C-terminal domain site; crystals pH 5.5.

On to `C[S+](CC[C@H](N)C(=O)O)C[C@H]1O[C@@H](n2cnc3c(N)ncnc32)[C@H](O)[C@@H]1O` (some centres unmarked) [SAM], for which the “crystal structure, 2.2 Å” value at MtmC [1] is 4RVD (complex with SAM). With `Cc1cn([C@H]2C[C@H](O)[C@@H](COP(=O)(O)OP(=O)(O)O)O2)c(=O)[nH]c1=O` [TDP], the “crystal structure, 2.7 Å” value at MtmC [2] was 4RVF (complex with TDP).
